Tested on: laminin-5, uPAR and CD44 transcripts in MCF-7 cells
Assay: TaqMan real time PCR transcript analysis of EMT/CSC genes in MCF-IM model
Type: cell-based, human
Protocol: For most of the experiments, total RNA was extracted from 5×10^5 to 1×10^6 MCF-7 cells unless otherwise specified. Cells were first thawed in 1 mL of Trizol® Reagent (Invitrogen, Carlsbad, Calif.) for 5 minutes at room temperature to inactivate RNases, followed by trituration to dislodge the cell pellet. The dissociated cells suspended in Tizol (1 mL) were transferred into a 1.5 mL Eppendorf tube for 5 minutes for homogenization. RNA was then extracted by addition of 200 μL chloroform and mixing was done vigorously before centrifuging the samples at 8,000×g for 30 minutes at 4° C. The aqueous layer was then collected into a fresh 1.5 mL Eppendorf tube and an equal volume of isopropanolol was added to the aqueous layer and mixed gently. After 5 minutes at room temperature, samples were either snap frozen on dry ice and stored at −70° C. overnight or until the isolation procedure could be re-commenced. After thawing the samples quickly, the samples were again centrifuged at 8,000×g for 30 minutes at 4° C. to precipitate the RNA. To remove all traces of isopropanolol, next the RNA pellets were washed with 1 mL of ice cold 80% ethanol (Analytical UNIVAR, Seattle, Wash.) before centrifuging at 3,600×g for 10 minutes at 4° C. All ethanol then was removed and pellets were allowed to air dry for 5 minutes. RNA samples were then solubilized by re-suspending them in 50 μL of nuclease-free DEPC (Diethylpyrocarbonate treated) water (Ambion, VIC, Australia). Next, 2 μL of the sample was taken out to measure RNA quality and quantity on Nano-drop® Spectrophotometer ND 1000 (Nanodrop Technologies, Inc., Wilmington, Del., USA) using ND-1000 V3.30 software. All the RNA samples were found pure as they had A260/A280 ratio of 1.9-2.1 and this ratio provides an estimate of RNA purity with respect to contaminants such as proteins that absorb in the UV spectrum.
Superscript™® III kit (Invitrogen, Carlsbad, Calif.) was used for cDNA synthesis. Master mix-1 was prepared by adding 1 μL of 5 μM oligo (dT) and 1 μL of 100 mM dNTPs and mixed by flicking. Mastermix-2 was prepared by adding 2 μL of RT buffer, 2 μL of 3 mM mgCl2, 2 μL of DTT mix, 1 μL of RNAse out, 1 μL of superscript III and mixed by flicking. For 1 μg RNA, 2 μL of the master mix-1 was added to the samples, mixed and incubated at 65° C. for 5 minutes and then samples were placed on ice to stop the reaction. This step was followed by addition of 10 μL of the master mix-2 per sample and incubation of samples at 50° C. for 50 minutes. The reaction was then stopped by incubating samples at 85° C. for 5 minutes followed by placing the samples on the ice for 2 minutes. […] All the samples were either snap frozen on dry ice or used immediately for quantitative Real-Time PCR analysis. […]

| SMILES | transcription of key inducible EMT/CSC genes (laminin-5, uPAR, CD44) (bisindolylmaleimide-I 100 nM for 1 hour prior to PMA) | transcription of key inducible EMT/CSC genes (laminin-5, uPAR, CD44) (bisindolylmaleimide-I 1 μM for 1 hour prior to PMA) | transcription of key inducible EMT/CSC genes (laminin-5, uPAR, CD44) (bisindolylmaleimide-I 1 μM for 1 hour prior to PMA, listed as Broad spectrum PKC pathway inhibitor) | transcription of key inducible EMT/CSC genes (laminin-5, uPAR, CD44) (Go6976 1 μM for 1 hour prior to PMA) |
| --- | --- | --- | --- | --- |
| CN(C)CCCn1cc(C2=C(c3c[nH]c4ccccc34)C(=O)NC2=O)c2ccccc21 [bisindolylmaleimide-I] | cannot inhibit transcription of key inducible EMT/CSC genes | inhibits transcription of key inducible EMT/CSC genes | inhibition of EMT and CSC formation | – |
| Cn1c2ccccc2c2c3c(c4c5ccccc5n(CCC#N)c4c21)CNC3=O [Go6976] | – | – | – | failed to inhibit transcription of key inducible EMT/CSC genes |

Reference: patent publication US10485772B2, “Compositions for modulating cancer stem cells and uses therefor” (University of Canberra, priority 2014, dated 2019)
